The values below come from patent publication US8344029B2, “Substituted propanamide derivative and pharmaceutical composition containing the same” (Daiichi Sankyo Company, Limited, priority 2005, dated 2013).

Each structure is given as a SMILES string.

The first assay deals with adjuvant arthritis model rats (8-week old female Lewis rats). The assay is described as follows: Bone density decrease-suppressing activity in adjuvant arthritis model rats. Type of assay: in vivo, rat. The following applies: dose 3 mg/kg, oral once a day for 7 days from day 14 after adjuvant injection; femur bone density on the 21st day. Here is the method:
In rheumatoid arthritis, not only swelling and pain caused by arthritis but also systemic bone mass decrease and articular destruction caused by a significant increase in bone resorption are observed.
The test was conducted using 8-week old female Lewis rats. Mycobacterium butyricum cells killed by heat were ground in an agate mortar, suspended in liquid paraffin sterilized by dry heat to a concentration of 2 mg/mL, and treated with ultrasonic to prepare an adjuvant. Under ether anesthesia, rats in a control group other than a normal control group and rats in test compound administration group were intradermally injected with 0.05 mL of the adjuvant each time (0.1 mL/rat in total) at two portions of the base of the tail. Starting from 14 days after the injection of the adjuvant, each rat was orally administered with 5 mL/kg of a test compound suspended in 0.5% MC once a day for 7 days. The rats of the control group were similarly administered with 0.5% MC alone. On the 21st day after the adjuvant injection, the femur was biopsied. The femur, after removing soft tissues, was sufficiently fixed, dehydrated, and dried with ethanol. The bone density of the femur was measured with a bone density analyzer (Aloka, DOS-600 EX-IIIR). Five rats were used for each group.
The evaluation was conducted by comparative tests with the normal control group and the control group based on the bone density decrease-suppressing rate (%) calculated according to the following equation: Bone density decrease-suppressing rate(%)=((1−([femur bone density in normal control group]−[femur bone density in test compound administration group]))/([femur bone density in normal control group]−[femur bone density in control group]))×100
With `O=C(N[C@@H](Cc1ccc(OC(F)(F)F)cc1)C(=O)NCCO)c1ccc(OCC2CC2)cc1` [Example 51, 4-(Cyclopropylmethoxy)-N-{(1S)-2-[(2-hydroxyethyl)amino]-2-oxo-1-[4-(trifluoromethoxy)benzyl]ethyl}benzamide], the “Bone density decrease-suppressing rate (%)” value is 85%.

As to `O=C(N[C@@H](Cc1ccc(OC(F)(F)F)cc1)C(=O)NCCO)c1ccc(OCCC(F)(F)F)cc1` [Example 57, N-{(1S)-2-[(2-Hydroxyethyl)amino]-2-oxo-1-[4-(trifluoromethoxy)benzyl]ethyl}-4-(3,3,3-trifluoropropoxy)benzamide], the “Bone density decrease-suppressing rate (%)” value is 86%.

For the compound `O=C(N[C@@H](Cc1ccc(OC(F)F)cc1)C(=O)NCCO)c1ccc(OCCC(F)(F)F)cc1` [Example 59, N-{(1S)-1-[4-(Difluoromethoxy)benzyl]-2-[(2-hydroxyethyl)amino]-2-oxoethyl}-4-(3,3,3-trifluoropropoxy)benzamide], the “Bone density decrease-suppressing rate (%)” value is on record as 92%.

For the compound `O=C(N[C@@H](Cc1ccc(C(F)(F)F)cc1)C(=O)NCCO)c1ccc(OCCC(F)(F)F)cc1` [Example 61, N-{(1S)-2-[(2-Hydroxyethyl)amino]-2-oxo-1-[4-(trifluoromethyl)benzyl]ethyl}-4-(3,3,3-trifluoropropoxy)benzamide], the “Bone density decrease-suppressing rate (%)” value is listed as 75%.

With `O=C(N[C@@H](Cc1ccc(OC(F)(F)F)cc1)C(=O)NCCO)c1ccc(Oc2ccc(C(F)(F)F)cc2)cc1` [Example 64, N-{(1S)-2-[(2-Hydroxyethyl)amino]-2-oxo-1-[4-(trifluoromethoxy)benzyl]ethyl}-4-[4-(trifluoromethyl)phenoxy]benzamide], the “Bone density decrease-suppressing rate (%)” value was found to be 77%.

Another assay has as its system immature rats (4-week old male Wistar rats). The assay is described as follows: Evaluation of blood calcium concentration-decreasing activity in immature rats. Type of assay: in vivo. The following applies: Rattus norvegicus; 6 hours after oral administration of 10 mg/kg, fasted 4-week old male Wistar rats, vs normal control group; read-out: serum calcium concentration-decreasing rate. How it is done: The blood calcium concentration in a living body is strictly controlled and constantly maintained by intestinal absorption and urinary excretion and release (bone resorption) and adhesion (bone formation) in bone tissues. […] The bone resorption-suppressing activity of compounds according to the present invention was evaluated by observing decreases in blood calcium concentration in immature rats administered with the compounds as an index of the activity.
The test was conducted using 4-week old male Wistar rats fasted for 12 to 24 hours. Each compound to be tested was suspended in 0.5% methyl cellulose (MC). The suspension was orally administered to the rats at a dose of 5 mL/kg. Rats of a normal control group were similarly administered with 0.5% MC alone. Then, blood was drawn from rat jugular vein under ether anesthesia 6 hours after the administration of each test compound or 0.5% MC. The blood was immediately centrifuged (10000 rpm/revolutions per minute, 5 minutes) at room temperature to separate serum. The calcium concentration of each serum was measured by an autoanalyzer (JEOL, JCA-BM2250). Five rats were used for each test group.
The evaluation was conducted by a comparative test with the normal control group based on the serum calcium concentration-decreasing rate (%) calculated according to the following equation: Serum calcium concentration-decreasing rate(%)=(([serum calcium concentration in normal control group]−[serum calcium concentration in test compound administration group]/[serum calcium concentration in normal control group])×100.
`O=C(NC(Cc1ccc(OC(F)F)cc1)C(=O)NCCO)c1ccc(OCCC2CC2)cc1` (stereo not drawn) [Example 3, 4-(2-Cyclopropylethoxy)-N-{1-[4-(difluoromethoxy)benzyl]-2-[(2-hydroxyethyl)amino]-2-oxoethyl}benzamide]: the inhibition in vivo at 10 mg/kg is ≥ 10%.

Take `O=C(NC(Cc1ccc(OC(F)(F)F)cc1)C(=O)NCCO)c1ccc(OCCC2CC2)cc1` (stereo not drawn) [Example 4, 4-(2-Cyclopropylethoxy)-N-{2-[(2-hydroxyethyl)amino]-2-oxo-1-[4-(trifluoromethoxy)benzyl]ethyl}benzamide]: the inhibition in vivo at 10 mg/kg is ≥ 10%.

With `O=C(NC(Cc1ccc(C(F)(F)F)cc1)C(=O)NCCO)c1ccc(OCCC2CC2)cc1` (stereo not drawn) [Example 7, 4-(2-Cyclopropylethoxy)-N-{2-[(2-hydroxyethyl)amino]-2-oxo-1-[4-(trifluoromethyl)benzyl]ethyl}benzamide], the inhibition in vivo at 10 mg/kg was ≥ 10%.

`O=C(NC(Cc1ccc(OC(F)F)cc1)C(=O)NCCO)c1ccc(OCC2CC2)cc1` (stereo not drawn) [Example 18, 4-(Cyclopropylmethoxy)-N-{1-[4-(difluoromethoxy)benzyl]-2-[(2-hydroxyethyl)amino]-2-oxoethyl}benzamide]: the inhibition in vivo at 10 mg/kg is ≥ 10%.

On to `O=C(NC(Cc1ccc(OC(F)(F)F)cc1)C(=O)NCCO)c1ccc(OCC2CC2)cc1` (stereo not drawn) [Example 19, 4-(Cyclopropylmethoxy)-N-{2-[(2-hydroxyethyl)amino]-2-oxo-1-[4-(trifluoromethoxy)benzyl]ethyl}benzamide], for which the inhibition in vivo at 10 mg/kg is ≥ 10%.

As to `O=C(NC(Cc1ccc(OC2CC2)cc1)C(=O)NCCO)c1ccc(OCC2CC2)cc1` (stereo not drawn) [Example 20, 4-(Cyclopropylmethoxy)-N-{1-[4-(cyclopropyloxy)benzyl]-2-[(2-hydroxyethyl)amino]-2-oxoethyl}benzamide], the inhibition in vivo at 10 mg/kg was ≥ 10%.

`O=C(NC(Cc1ccc(C(F)(F)F)cc1)C(=O)NCCO)c1ccc(OCC2CC2)cc1` (stereo not drawn) [Example 22, 4-(Cyclopropylmethoxy)-N-{2-[(2-hydroxyethyl)amino]-2-oxo-1-[4-(trifluoromethyl)benzyl]ethyl}benzamide]: the inhibition in vivo at 10 mg/kg is ≥ 10%.

Take `O=C(NC(Cc1ccc(C2CC2)cc1)C(=O)NCCO)c1ccc(OCC2CC2)cc1` (stereo not drawn) [Example 23, N-{1-(4-Cyclopropylbenzyl)-2-[(2-hydroxyethyl)amino]-2-oxoethyl}-4-(cyclopropylmethoxy)benzamide]: the inhibition in vivo at 10 mg/kg is ≥ 10%.

As for `O=C(NC(Cc1ccc(OC(F)(F)F)cc1)C(=O)NCCO)c1ccc(OCCCC2CC2)cc1` (stereo not drawn) [Example 25, 4-(3-Cyclopropylpropoxy)-N-{2-[(2-hydroxyethyl)amino]-2-oxo-1-[4-(trifluoromethoxy)benzyl]ethyl}benzamide], the inhibition in vivo at 10 mg/kg was ≥ 10%.

For the compound `O=C(NC(Cc1ccc(OC(F)(F)F)cc1)C(=O)NCCO)c1ccc(OCC(F)F)cc1` (stereo not drawn) [Example 31, 4-(2,2-Difluoroethoxy)-N-{2-[(2-hydroxyethyl)amino]-2-oxo-1-[4-(trifluoromethoxy)benzyl]ethyl}benzamide], the inhibition in vivo at 10 mg/kg was ≥ 10%.

Regarding `O=C(NC(Cc1ccc(OC(F)(F)F)cc1)C(=O)NCCO)c1ccc(OCCC(F)(F)F)cc1` (stereo not drawn) [Example 34, N-{2-[(2-Hydroxyethyl)amino]-2-oxo-1-[4-(trifluoromethoxy)benzyl]ethyl}-4-(3,3,3-trifluoropropoxy)benzamide], the inhibition in vivo at 10 mg/kg was ≥ 10%.

On to `O=C(NC(Cc1ccc(OC(F)(F)F)cc1)C(=O)NCCO)c1ccc(OCC2CC2(F)F)cc1` (stereo not drawn) [Example 40, 4-[(2,2-Difluorocyclopropyl)methoxy]-N-{2-[(2-hydroxyethyl)amino]-2-oxo-1-[4-(trifluoromethoxy)benzyl]ethyl}benzamide], for which the inhibition in vivo at 10 mg/kg is ≥ 10%.

For `O=C(NC(Cc1ccc(OC(F)(F)F)cc1)C(=O)NCCO)c1ccc(Oc2ccc(C(F)(F)F)cc2)cc1` (stereo not drawn) [Example 42, N-{2-[(2-Hydroxyethyl)amino]-2-oxo-1-[4-(trifluoromethoxy)benzyl]ethyl}-4-[4-(trifluoromethyl)phenoxy]benzamide], the inhibition in vivo at 10 mg/kg is ≥ 10%.
